Reference: patent US12466831B2, “Substituted amino triazolopyrimidine and amino triazolopyrazine adenosine receptor antagonists, pharmaceutical compositions and their use” (Merck Sharp & Dohme LLC, priority 2018, dated 2025)

Columns and labels:
[1] = molecular target: T1, human A2a adenosine receptor (Homo sapiens, UniProt P29274); experiment: A2a binding affinity using radioligand binding, Method (A); settings: Method (A): [3H]SCH58261 filtration binding, membranes expressing human A2a
T1 construct: purchased Perkin Elmer RBHA2aM400UA; host or cells: HEK293 or CHO cells (recombinant expression)
Excerpt: (§1) Method (A) describes the procedure used to measure A2a binding affinity using radioligand binding. Method (B) describes the procedure used to measure A2a binding affinity using SPA technology. The method used to measure A2b binding affinity is also described below. The method used to determine the A2a IC50 value reported for each compound in the table is indicated next to the reported value. The A2b IC50 value measured using the A2b binding affinity assay is shown in the table next to the compound under the corresponding A2a value.
The A2a receptor affinity binding assay measured the amount of binding of a tritiated ligand with high affinity for the A2a adenosine receptor to membranes made from HEK293 or CHO cells recombinantly expressing the human A2a adenosine receptor, in the presence of varying concentrations of a compound of the invention. The data were generated using either filtration binding or a homogenous scintillation proximity assay (SPA).
Method (A): Measurement of A2a Binding Affinity Using Radioligand Binding
148 μL (5 μg/mL) membranes (Perkin Elmer, Cat. No. RBHA2aM400UA) and 2 μL compounds of the invention to be tested (test compound) were transferred to individual wells of a 96-well polypropylene assay plate and incubated for 15 to 30 minutes at room temperature. [^3H] SCH58261 ((7-(2-phenylethyl)-5-amino-2-(2-furyl)-pyrazolo-[4,3-e]-1,2,4-triazolo[1,5-c]pyrimidine)) was diluted in assay buffer (50 mM Tris pH 7.4, 10 mM MgCl2, 0.005% Tween20) to a concentration of 4 nM and 50 μL transferred to each well of the assay plate. To define total and non-specific binding, wells containing 1% DMSO and 1 μM ZM241385 (Tocris Bioscience, Cat. No. 1036) respectively, were also included. The assay plate was incubated at room temperature for 60 minutes with agitation. Using a FilterMate Harvester® (Perkin Elmer), the contents of the assay plate were filtered through a UniFilter-96® PEI coated plate (Perkin Elmer Cat. No. 6005274 or 6005277). Filtering was achieved by aspirating the contents of the assay plate for 5 seconds, then washing and aspirating the contents three times with ice-cooled wash buffer (50 mM Tris-HCl pH 7.4, 150 mM NaCl) and allowing the vacuum manifold to dry the plate for 30 seconds. The filter plate was incubated for at least 1 hour at 55° C. and allowed to dry. The bottom of the filter plate was sealed with backing tape. 40 μL Ultima Gold™ (Perkin Elmer, Cat. No. 6013329) was added to each well of the filter plate and the top of the plate was sealed with TopSeal-A PLUS® clear plate seal (Perkin Elmer, Cat. No. 6050185). The plate was incubated for at least 20 minutes, and then the amount of radioactivity remaining in each well was determined using a TopCount® (Perkin Elmer) scintillation counter. After normalization to total and non-specific binding, the percent effect at each compound concentration was calculated. The plot of percent effect versus the log of compound concentration was analyzed electronically using a 4-parameter logistic fit based on the Levenberg-Marquardt algorithm to generate IC50 values.

[2] = molecular target: T2, human A2b adenosine receptor (Homo sapiens, UniProt P29275); experiment: A2b binding affinity, radioligand filtration binding assay; settings: tritiated proprietary A2b antagonist, HEK293 membranes expressing human A2b
T2 construct: purchased Perkin Elmer ES-013-C; host or cells: HEK293 cells recombinantly expressing the receptor; membranes made from them
T2 sequence (P29275 1-332): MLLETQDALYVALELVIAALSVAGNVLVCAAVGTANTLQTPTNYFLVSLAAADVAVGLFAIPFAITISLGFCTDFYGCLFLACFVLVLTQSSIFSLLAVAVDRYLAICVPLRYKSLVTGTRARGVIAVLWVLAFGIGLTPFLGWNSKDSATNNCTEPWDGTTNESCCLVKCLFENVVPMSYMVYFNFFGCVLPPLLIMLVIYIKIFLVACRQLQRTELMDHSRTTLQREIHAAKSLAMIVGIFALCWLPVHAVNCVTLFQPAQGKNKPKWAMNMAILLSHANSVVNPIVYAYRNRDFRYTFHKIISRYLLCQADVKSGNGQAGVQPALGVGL
Excerpt: as §1
Measurement of A2b Binding Affinity
The reported affinity of the compounds of the invention for the human A2b adenosine receptor was determined experimentally using a radioligand filtration binding assay. This assay measures the amount of binding of a tritiated proprietary A2b receptor antagonist, in the presence and absence of a compound of the invention, to membranes made from HEK293 cells recombinantly expressing the human A2b adenosine receptor (Perkin Elmer, Cat. No. ES-013-C).
148 μL (135 μg/mL) membranes and 2 μL test compounds were transferred to individual wells of a 96-well polypropylene assay plate and incubated for 15 to 30 minutes at room temperature with agitation. Tritiated radioligand was diluted to a concentration of 14 nM in assay buffer (phosphate buffered saline without Magnesium and Calcium, pH 7.4; GE Healthcare Life Sciences, Cat. No. SH30256.01) and then 50 μL of the solution were transferred to each well of the assay plate. To define total and non-specific binding, wells containing 1% DMSO and 20 μM N-ethylcarboxamidoadenosine (Tocris Bioscience, Cat. No. 1691) respectively, were also included. The wells of the assay plate were incubated at room temperature for 60 minutes with agitation, then filtered using a FilterMate Harvester® (Perkin Elmer) or similar equipment through a UniFilter-96® PEI coated plate (Perkin Elmer Cat. No. 6005274 or 6005277). Filtering was achieved by aspirating the contents of the assay plate for 5 seconds, then washing and aspirating the contents three times with ice-cooled wash buffer (assay buffer supplemented with 0.0025% Brij58) and allowing the vacuum manifold to dry the plate for 30 seconds. The filter plate was incubated for at least 1 hour at 55° C. and allowed to dry. The bottom of the filter plate was then sealed with backing tape. 40 μL Ultima Gold™ (Perkin Elmer, Cat. No. 6013329) was added to each well of the filter plate and the top of the plate was sealed with TopSeal-A PLUS® clear plate seal (Perkin Elmer, Cat. No. 6050185). The plates were then incubated for at least 20 minutes, and then the amount of radioactivity remaining in each well was determined using a TopCount® (Perkin Elmer) scintillation counter. After normalization to total and non-specific binding, the percent effect at each compound concentration was calculated. The plot of percent effect versus the log of compound concentration was analyzed electronically using a 4-parameter logistic fit based on the Levenberg-Marquardt algorithm to generate IC50 values.

T1 sequence (P29274 whole entry): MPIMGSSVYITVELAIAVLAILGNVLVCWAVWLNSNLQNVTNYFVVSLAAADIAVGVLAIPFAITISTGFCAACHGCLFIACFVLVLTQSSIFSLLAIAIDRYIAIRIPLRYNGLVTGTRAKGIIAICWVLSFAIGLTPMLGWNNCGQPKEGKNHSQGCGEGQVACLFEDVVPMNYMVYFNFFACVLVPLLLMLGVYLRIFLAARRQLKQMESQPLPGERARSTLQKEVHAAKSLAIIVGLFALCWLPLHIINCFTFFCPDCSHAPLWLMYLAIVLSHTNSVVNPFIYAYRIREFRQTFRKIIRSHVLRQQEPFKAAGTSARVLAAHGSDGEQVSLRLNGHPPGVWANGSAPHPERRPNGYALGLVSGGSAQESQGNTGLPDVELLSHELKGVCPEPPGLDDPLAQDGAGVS

| SMILES | IC50 [1] | IC50 [2] |
| --- | --- | --- |
| Cc1c(-c2cccc(F)c2)nc(Br)c2nc([C@H]3C[C@@H]3C(C)(C)O)nn12 (mixture of isomers) [Example 1.2, 2-((1S,2S and 1R,2R)-2-(8-bromo-6-(3-fluorophenyl)-5-methyl-[1,2,4]triazolo[1,5-a]pyrazin-2-yl)cyclopropyl)propan-2-ol] | 23.3 nM | 202 nM |
| Cc1c(-c2ncco2)nc(N)n2nc(C3CCN(CC(F)(F)F)C3)nc12 (racemic) [Example 9.1, (R and S)-8-methyl-7-(oxazol-2-yl)-2-(1-(2,2,2-trifluoroethyl)pyrrolidin-3-yl)-[1,2,4]triazolo[1,5-c]pyrimidin-5-amine] | 32.3 nM | 618 nM |
| Cc1c(-c2ncco2)nc(N)c2nc([C@@H]3CCCN(c4cnn(C)c4)C3)nn12 (single isomer, unassigned) [Example 2.5-1] | 14.8 nM | 770 nM |
| Cc1c(-c2ncco2)nc(N)c2nc([C@H]3CCCN(c4cnn(C)c4)C3)nn12 (single isomer, unassigned) [Example 2.5-2] | 37.3 nM | 7390 nM |
| Cc1c(-c2cc(F)ccc2F)nc(N)c2nc([C@@H]3CCCN(c4cnn(C)c4)C3)nn12 (single isomer, unassigned) [Example 2.6] | 218 nM | 436 nM |
| Cc1c(-c2ncco2)nc(N)n2nc([C@@H]3CCCN(c4cnn(C(C)C(C)(C)O)c4)C3)nc12 (single isomer, unassigned) [Example 2.10, (R or S)-3-(4-((R)-3-(5-amino-8-methyl-7-(oxazol-2-yl)-[1,2,4]triazolo[1,5-c]pyrimidin-2-yl)piperidin-1-yl)-1H-pyrazol-1-yl)-2-methylbutan-2-ol] | 1.2 nM | 261 nM |
| Cc1c(-c2ncco2)nc(N)n2nc([C@@H]3CCCN(c4cnn(C(C)C(C)(C)O)c4)C3)nc12 (single isomer, unassigned) [Example 2.11, (S or R)-3-(4-((R)-3-(5-amino-8-methyl-7-(oxazol-2-yl)-[1,2,4]triazolo[1,5-c]pyrimidin-2-yl)piperidin-1-yl)-1H-pyrazol-1-yl)-2-methylbutan-2-ol] | 3.2 nM | 81.6 nM |
| Cc1c(-c2ncco2)nc(N)n2nc(C3CCN(c4cnn(CC(C)(C)O)c4)C3)nc12 (single isomer, unassigned) [Example 3.15-1, (R or S)-1-(4-(3-(5-amino-8-methyl-7-(oxazol-2-yl)-[1,2,4]triazolo[1,5-c]pyrimidin-2-yl)pyrrolidin-1-yl)-1H-pyrazol-1-yl)-2-methylpropan-2-ol] | 42.6 nM | 386 nM |
| Cc1c(-c2ncco2)nc(N)n2nc(C3CCN(c4cnn(CC(C)(C)O)c4)C3)nc12 (single isomer, unassigned) [Example 3.15-2, (R or S)-1-(4-(3-(5-amino-8-methyl-7-(oxazol-2-yl)-[1,2,4]triazolo[1,5-c]pyrimidin-2-yl)pyrrolidin-1-yl)-1H-pyrazol-1-yl)-2-methylpropan-2-ol] | 435 nM | 9090 nM |
| Cc1c(-c2ncco2)nc(N)n2nc(C3CCCC(C)(O)C3)nc12 (single isomer, unassigned) [Example 8.2-1, (1-R or S,3-R or S)-3-(5-amino-8-methyl-7-(oxazol-2-yl)-[1,2,4]triazolo[1,5-c]pyrimidin-2-yl)-1-methylcyclohexan-1-ol] | 30.6 nM | 5550 nM |
| Nc1nc(-c2ccccc2)cc2nc([C@@H]3CC(F)(F)CN3)nn12 [Example 2.1, (S)-2-(4,4-difluoropyrrolidin-2-yl)-7-phenyl-[1,2,4]triazolo[1,5-c]pyrimidin-5-amine] | 12 nM | – |
| Nc1nc(-c2ncco2)cc2nc([C@@H]3CC(F)(F)CN3)nn12 [Example 2.2, (S)-2-(4,4-difluoropyrrolidin-2-yl)-7-(oxazol-2-yl)-[1,2,4]triazolo[1,5-c]pyrimidin-5-amine] | 143 nM | – |
| Cc1c(-c2ncco2)nc(N)n2nc([C@H]3C[C@@H](c4ccc(C(C)(C)O)cn4)C3)nc12 [Example 2.18, 2-(6-((1,3-cis)-3-(5-amino-8-methyl-7-(oxazol-2-yl)-[1,2,4]triazolo[1,5-c]pyrimidin-2-yl)cyclobutyl)pyridin-3-yl)propan-2-ol] | 3.7 nM | – |
| Cc1c(-c2ncco2)nc(N)n2nc([C@H]3C[C@H](c4ccc(C(C)(C)O)cn4)C3)nc12 [Example 2.19, 2-(6-((1,3-trans)-3-(5-amino-8-methyl-7-(oxazol-2-yl)-[1,2,4]triazolo[1,5-c]pyrimidin-2-yl)cyclobutyl)pyridin-3-yl)propan-2-ol] | 5.2 nM | – |
| Cc1c(-c2ncco2)nc(N)n2nc([C@H]3C[C@H](c4ccc(C(C)(C)N)cn4)C3)nc12 [Example 2.20, 2-((1,3-trans)-3-(5-(2-aminopropan-2-yl)pyridin-2-yl)cyclobutyl)-8-methyl-7-(oxazol-2-yl)[l,2,4]triazolo[1,5-c]pyrimidin-5-amine] | 9.9 nM | – |
| Cc1c(-c2ncco2)nc(N)n2nc([C@H]3C[C@@H](c4ccc(C(C)(C)N)cn4)C3)nc12 [Example 2.21, 2-((1,3-cis)-3-(5-(2-aminopropan-2-yl)pyridin-2-yl)cyclobutyl)-8-methyl-7-(oxazol-2-yl)-[1,2,4]triazolo[1,5-c]pyrimidin-5-amine] | 26.3 nM | – |
| Nc1nc(-c2ccccc2)cc2nc([C@@H]3CC(F)(F)CN3C(=O)C3CC3)nn12 [Example 4.3, (S)-(2-(5-amino-7-phenyl-[1,2,4]triazolo[1,5-c]pyrimidin-2-yl)-4,4-difluoropyrrolidin-1-yl)(cyclopropyl)methanone] | 14.9 nM | – |
| Cc1c(-c2ncco2)nc(N)n2nc([C@H]3C[C@H](c4ccc(C(C)(C)N)nc4)C3)nc12 [Example 10.6, 2-((1,3-trans)-3-(6-(2-aminopropan-2-yl)pyridin-3-yl)cyclobutyl)-8-methyl-7-(oxazol-2-yl)-[1,2,4]triazolo[1,5-c]pyrimidin-5-amine] | 15.7 nM | – |
